Experimental data reported in patent US10098902B2, “Arginase inhibitors as therapeutics” (Mars, Incorporated, priority 2010, dated 2018).

Key:
human arginase I (ARG I) = human arginase I (ARG I) (Homo sapiens (Human), UniProt P05089); experiment: Inhibition of arginase I, spectrophotometric urea assay at 530 nm; format: biochemical; conditions: potency rank 1-5; pH 7.4, 37° C., 60 minutes
Method: (§1) Inhibition of arginase I (ARG I) and arginase II (ARG II) by Formula I or Formula II compounds is followed spectrophotometrically at 530 nm. The compound to be tested was dissolved in DMSO at an initial concentration 50-fold greater than its final concentration in the cuvette. 10 μl of the stock solution was diluted in 90 μl of the assay buffer that comprises 0.1M sodium phosphate buffer containing 130 mM NaCl, pH 7.4, to which is added ovalbumin (OVA) at a concentration of 1 mg/ml. Solutions of arginase I and II were prepared in 100 mM sodium phosphate buffer, pH 7.4 containing 1 mg/ml of OVA to give an arginase stock solution at a final concentration of 100 ng/ml.
(§2) To each well of a 96-well microtiter plate was added 40 μl of enzyme, 10 μl of an inventive compound and 10 μl of enzyme substrate (L-arginine+manganese sulfate). For wells that were used as positive controls, only the enzyme and its substrate were added, while wells used as negative controls contained only manganese sulfate.
(§3) After incubating the microtiter plate at 37° C. for 60 minutes, 150 μl of a urea reagent obtained by combining equal proportions (1:1) of reagents A and B is added to each well of the microtiter plate to stop the reaction. The urea reagent is made just before use by combining Reagent A (10 mM o-phthaldialdehyde, and 0.4% polyoxyethylene (23) lauryl ether (w/v) in 1.8 M sulfuric acid) with Reagent B (1.3 mM primaquine diphosphate, 0.4% polyoxyethylene (23) lauryl ether (w/v), 130 mM boric acid in 3.6 mM sulfuric acid). After quenching the reaction mixture, the microtiter plate is allowed to stand for an additional 10 minutes at room temperature to allow the color to develop. The inhibition of arginase was computed by measuring the optical density (OD) of the reaction mixture at 530 nm and normalizing the OD value to percent inhibition observed in the control. The normalized OD is then used to generate a dose-response curve by plotting the normalized OD values against log [concentration] and using regression analysis to compute the IC50 values.

[1] = molecular target: human arginase II (ARG II) (Homo sapiens (Human), UniProt P78540); experiment: Inhibition of arginase II, spectrophotometric urea assay at 530 nm; format: biochemical; conditions: potency rank 1-5; pH 7.4, 37° C., 60 minutes
human arginase II (ARG II), sequence (P78540 23-354): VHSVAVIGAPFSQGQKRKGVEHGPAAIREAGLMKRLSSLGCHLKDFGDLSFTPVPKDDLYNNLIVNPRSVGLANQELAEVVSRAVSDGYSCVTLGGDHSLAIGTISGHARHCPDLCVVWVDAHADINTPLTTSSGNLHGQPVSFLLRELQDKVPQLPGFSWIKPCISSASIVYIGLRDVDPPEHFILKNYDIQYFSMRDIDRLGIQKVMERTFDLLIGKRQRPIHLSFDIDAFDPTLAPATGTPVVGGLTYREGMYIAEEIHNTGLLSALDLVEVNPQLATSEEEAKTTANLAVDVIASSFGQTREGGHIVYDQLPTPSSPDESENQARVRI
Method: as §1, §2, §3

human arginase I (ARG I), sequence (P05089 whole entry): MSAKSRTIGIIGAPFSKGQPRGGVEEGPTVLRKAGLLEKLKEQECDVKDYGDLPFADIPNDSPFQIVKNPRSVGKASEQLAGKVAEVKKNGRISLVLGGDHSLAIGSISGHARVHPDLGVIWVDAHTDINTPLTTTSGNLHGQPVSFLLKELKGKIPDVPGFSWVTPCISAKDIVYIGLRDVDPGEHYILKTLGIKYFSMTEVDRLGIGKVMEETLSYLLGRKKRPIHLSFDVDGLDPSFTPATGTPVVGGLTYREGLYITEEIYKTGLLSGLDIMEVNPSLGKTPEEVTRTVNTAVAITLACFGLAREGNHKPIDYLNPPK

SMILES	IC50 (human arginase I (ARG I))	IC50 [1]
NC[C@@H]1C[C@H](CCCB(O)O)[C@](N)(C(=O)O)C1 (racemic) [Example 64, (1S,2S,4R)-1-amino-4-(aminomethyl)-2-(3-boronopropyl)cyclopentanecarboxylic acid]	0.1 to 250 nM	0.1 to 250 nM
Cc1ccncc1N1C[C@H](CCCB(O)O)[C@](N)(C(=O)O)C1 [Example 32, (3R,4S)-3-amino-4-(3-boronopropyl)-1-(4-methylpyridin-3-yl)pyrrolidine-3-carboxylic acid]	1000 to 2000 nM	1000 to 2000 nM
N[C@@]1(C(=O)O)CN(CCCc2ccc(C(=O)O)cc2)C[C@@H]1CCCB(O)O [Example 16, (3R,4S)-3-amino-4-(3-boronopropyl)-1-(3-(4-carboxyphenyl)propyl)pyrrolidine-3-carboxylic acid]	0.1 to 250 nM	0.1 to 250 nM
N[C@@]1(C(=O)O)CCC[C@H]1CCCB(O)O [Example 2, (1S,2R)-1-amino-2-(3-boronopropyl)cyclopentanecarboxylic acid]	> 5000 nM	> 5000 nM
N[C@@]1(C(=O)O)CN(C2CCNC2)C[C@@H]1CCCB(O)O (stereo partly drawn) [Example 27, (3R,4S)-3-amino-4-(3-boronopropyl)-1,3′-bipyrrolidine-3-carboxylic acid]	0.1 to 250 nM	0.1 to 250 nM
N[C@@]1(C(=O)O)CN(CC2CCCN2)C[C@@H]1CCCB(O)O (stereo partly drawn) [Example 37, (3R,4S)-3-amino-4-(3-boronopropyl)-1-(pyrrolidin-2-ylmethyl)pyrrolidine-3-carboxylic acid]	0.1 to 250 nM	251 to 1000 nM
N[C@@]1(C(=O)O)CCNC[C@@H]1CCCB(O)O [Example 7, (3S,4S)-4-amino-3-(3-boronopropyl)piperidine-4-carboxylic acid]	251 to 1000 nM	251 to 1000 nM
NC1CCCC1N1C[C@H](CCCB(O)O)[C@](N)(C(=O)O)C1 (stereo partly drawn) [Example 14, (3R,4S)-3-amino-1-(2-aminocyclopentyl)-4-(3-boronopropyl)pyrrolidine-3-carboxylic acid]	0.1 to 250 nM	0.1 to 250 nM
N[C@@]1(C(=O)O)CN(C(=O)Cc2ccc(Cl)cc2)C[C@@H]1CCCB(O)O [Example 45, (3R,4S)-3-amino-4-(3-boronopropyl)-1-(2-(4-chlorophenyl)acetyl)pyrrolidine-3-carboxylic acid]	251 to 1000 nM	251 to 1000 nM
NC1CCCCC1N1C[C@H](CCCB(O)O)[C@](N)(C(=O)O)C1 (stereo partly drawn) [Example 44, (3R,4S)-3-amino-1-(2-aminocyclohexyl)-4-(3-boronopropyl)pyrrolidine-3-carboxylic acid]	0.1 to 250 nM	0.1 to 250 nM
CNC(Cc1ccccc1)C(=O)N1C[C@H](CCCB(O)O)[C@](N)(C(=O)O)C1 (stereo partly drawn) [Example 58, (3R,4S)-3-amino-4-(3-boronopropyl)-1-(2-(methylamino)-3-phenylpropanoyl)pyrrolidine-3-carboxylic acid]	1000 to 2000 nM	1000 to 2000 nM
NC[C@H]1C[C@H](CCCB(O)O)[C@](N)(C(=O)O)C1 (racemic) [Example 65, (1S,2S,4S)-1-amino-4-(aminomethyl)-2-(3-boronopropyl)cyclopentanecarboxylic acid]	251 to 1000 nM	1000 to 2000 nM
N[C@@]1(C(=O)O)CN(C2CCNCC2)C[C@@H]1CCCB(O)O [Example 26, (3R,4S)-3-amino-4-(3-boronopropyl)-1-(piperidin-4-yl)pyrrolidine-3-carboxylic acid]	251 to 1000 nM	251 to 1000 nM
Cn1ccnc1CN1C[C@H](CCCB(O)O)[C@](N)(C(=O)O)C1 [Example 31, (3R,4S)-3-amino-4-(3-boronopropyl)-1-((1-methyl-1H-imidazol-2-yl)methyl)pyrrolidine-3-carboxylic acid]	0.1 to 250 nM	251 to 1000 nM
CN(C)[C@H]1C[C@H](CCCB(O)O)[C@](N)(C(=O)O)C1 (racemic) [Example 63, (1S,2S,4S)-1-amino-2-(3-boronopropyl)-4-(dimethylamino)cyclopentanecarboxylic acid]	0.1 to 250 nM	0.1 to 250 nM
N[C@@]1(C(=O)O)CCO[C@@H]1CCCB(O)O [Example 3, (2R,3S)-3-amino-2-(3-boronopropyl)tetrahydrofuran-3-carboxylic acid]	1000 to 2000 nM	2000 to 5000 nM

SMILES	IC50 (human arginase I (ARG I))	IC50 [1]
N[C@@]1(C(=O)O)CN(CCCc2ccc(Cl)cc2)C[C@@H]1CCCB(O)O [Example 22, (3R,4S)-3-amino-4-(3-boronopropyl)-1-(3-(4-chlorophenyl)propyl)pyrrolidine-3-carboxylic acid]	251 to 1000 nM	251 to 1000 nM
N[C@@]1(C(=O)O)CN(Cc2ccnc3ccccc23)C[C@@H]1CCCB(O)O [Example 19, (3R,4S)-3-amino-4-(3-boronopropyl)-1-(quinolin-4-ylmethyl)pyrrolidine-3-carboxylic acid]	251 to 1000 nM	251 to 1000 nM
NC1(C(=O)O)CCSC1CCCB(O)O (stereo not shown) [Example 5, 3-amino-2-(3-boronopropyl)tetrahydrothiophene-3-carboxylic acid]	1000 to 2000 nM	2000 to 5000 nM
N[C@@]1(C(=O)O)CN(CCNCc2ccccc2)C[C@@H]1CCCB(O)O [Example 40, (3R,4S)-3-amino-1-(2-(benzylamino)ethyl)-4-(3-boronopropyl)pyrrolidine-3-carboxylic acid]	0.1 to 250 nM	0.1 to 250 nM
N[C@@]1(C(=O)O)CN(CC2CCCCN2)C[C@@H]1CCCB(O)O (stereo partly drawn) [Example 21, (3R,4S)-3-amino-4-(3-boronopropyl)-1-(piperidin-2-ylmethyl)pyrrolidine-3-carboxylic acid]	0.1 to 250 nM	0.1 to 250 nM
CN1CCCCC1CN1C[C@H](CCCB(O)O)[C@](N)(C(=O)O)C1 (stereo partly drawn) [Example 36, (3R,4S)-3-amino-4-(3-boronopropyl)-1-((1-methylpiperidin-2-yl)methyl)pyrrolidine-3-carboxylic acid]	0.1 to 250 nM	251 to 1000 nM
N[C@@]1(C(=O)O)CN(C(=O)CNCc2ccccc2)C[C@@H]1CCCB(O)O [Example 60, (3R,4S)-3-amino-1-(2-(benzylamino)acetyl)-4-(3-boronopropyl)pyrrolidine-3-carboxylic acid]	251 to 1000 nM	1000 to 2000 nM
N[C@@]1(C(=O)O)CN(Cc2cccnc2)C[C@@H]1CCCB(O)O [Example 13, (3R,4S)-3-amino-4-(3-boronopropyl)-1-(pyridin-3-ylmethyl)pyrrolidine-3-carboxylic acid]	251 to 1000 nM	1000 to 2000 nM
N[C@@]1(C(=O)O)CN(CCNc2ccc(-c3ccccc3)cc2)C[C@@H]1CCCB(O)O [Example 52, (3R,4S)-3-amino-1-(2-(biphenyl-4-ylamino)ethyl)-4-(3-boronopropyl)pyrrolidine-3-carboxylic acid]	0.1 to 250 nM	0.1 to 250 nM
CC(C)CN1C[C@H](CCCB(O)O)[C@](N)(C(=O)O)C1 [Example 11, (3R,4S)-3-amino-4-(3-boronopropyl)-1-isobutylpyrrolidine-3-carboxylic acid]	251 to 1000 nM	1000 to 2000 nM
N[C@@]1(C(=O)O)CN(CCNCc2ccc(Cl)c(Cl)c2)C[C@@H]1CCCB(O)O [Example 41, (3R,4S)-3-amino-4-(3-boronopropyl)-1-(2-(3,4-dichlorobenzylamino)ethyl)pyrrolidine-3-carboxylic acid]	0.1 to 250 nM	0.1 to 250 nM
N[C@@]1(C(=O)O)CN(C(=O)c2ccc(F)cc2)C[C@@H]1CCCB(O)O (racemic) [Example 46, (3R,4S)-3-amino-4-(3-boronopropyl)-1-(4-fluorobenzoyl)pyrrolidine-3-carboxylic acid]	251 to 1000 nM	251 to 1000 nM
N[C@@]1(C(=O)O)CN(CC2CCCNC2)C[C@@H]1CCCB(O)O (stereo partly drawn) [Example 18, (3R,4S)-3-amino-4-(3-boronopropyl)-1-(piperidin-3-ylmethyl)pyrrolidine-3-carboxylic acid]	0.1 to 250 nM	251 to 1000 nM
N[C@@]1(C(=O)O)CN(C(=O)C2Cc3ccccc3CN2)C[C@@H]1CCCB(O)O (mixture of isomers) [Example 53, (3R,4S)-3-amino-4-(3-boronopropyl)-1-(1,2,3,4-tetrahydroisoquinoline-3-carbonyl)pyrrolidine-3-carboxylic acid]	0.1 to 250 nM	251 to 1000 nM
CN[C@@]1(C(=O)O)CNC[C@@H]1CCCB(O)O [Example 35, (3R,4S)-4-(3-boronopropyl)-3-(methylamino)pyrrolidine-3-carboxylic acid]	251 to 1000 nM	251 to 1000 nM
N[C@@]1(C(=O)O)CNC[C@H]1CCCB(O)O [Example 9, (3R,4R)-3-amino-4-(3-boronopropyl)pyrrolidine-3-carboxylic acid]	1000 to 2000 nM	1000 to 2000 nM
